Assay results from publication PMC3969230, “Structural and functional characterization of NanU, a novel high-affinity sialic acid-inducible binding protein of oral and gut-dwelling Bacteroidetes species” (Biochemical Journal, 2014).
Values joined by “and” are separate entries in the source; they are usually repeats but may differ in a detail not shown here. Identical values can stand only once.

Assays:
[1] = test system: NanU; test: Steady-state tryptophan fluorescence titration, NanU (species not told apart); type: binding; settings: for binding to NanU (in words): tryptophan fluorescence quenching
Method: (§1) Proteins were diluted in 25 mM sodium phosphate buffer, pH 7.4, to a final concentration of 0.5 μM and incubated at 25°C for 5 min before substrate titration. The quenching of intrinsic tryptophan fluorescence was measured at 25°C with constant stirring in a 104F-QS quartz fluorescence semi-micro cell (Hellma Analytics) using a Varian Cary Eclipse spectrofluorometer. The excitation and emission wavelengths were 295 nm (5 nm slit width) and 330 nm (10 nm slit width) respectively. Corrections for background fluorescence changes due to dilution effects with the stepwise addition of ligands were made by buffer titrations. Analysis and curve fitting of titration data were performed in Prism 5 (GraphPad Software), with the equilibrium dissociation constants (Kd) for one site-specific binding calculated using eqn (1): (1) Y=Bmax×X/(Kd+X) where X is the final concentration of ligand, Y is the percentage increase in protein quenching in relation to the protein-only fluorescence signal and Bmax is the extrapolated maximum specific binding.

[2] = test system: BT1043; set-up: method as in PMID 19191477; settings: non-physiological ligand; cited from earlier work
[3] = target: TF-NanU (TF0034) (Tannerella forsythia, UniProt G8UIQ0); test: Steady-state tryptophan fluorescence titration, TF-NanU; settings: 0.5 μM protein, 25 mM sodium phosphate pH 7.4, 25°C, one-site specific binding
TF-NanU (TF0034), sequence (G8UIQ0 entry or part of it): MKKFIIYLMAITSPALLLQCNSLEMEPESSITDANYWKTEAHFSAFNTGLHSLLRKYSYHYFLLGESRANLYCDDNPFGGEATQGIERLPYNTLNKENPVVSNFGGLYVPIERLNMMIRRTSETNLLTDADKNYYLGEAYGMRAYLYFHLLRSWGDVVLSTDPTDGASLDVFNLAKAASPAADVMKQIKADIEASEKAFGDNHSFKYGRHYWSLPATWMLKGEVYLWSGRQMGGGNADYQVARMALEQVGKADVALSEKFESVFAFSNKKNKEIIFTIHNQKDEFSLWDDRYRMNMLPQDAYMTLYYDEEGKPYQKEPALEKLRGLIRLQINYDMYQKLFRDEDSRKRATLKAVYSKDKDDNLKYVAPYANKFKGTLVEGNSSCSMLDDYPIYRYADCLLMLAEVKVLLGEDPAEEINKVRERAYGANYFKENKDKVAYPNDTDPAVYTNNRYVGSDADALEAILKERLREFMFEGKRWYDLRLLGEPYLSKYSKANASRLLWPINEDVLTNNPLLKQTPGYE
Method: as §1

[4] = target: BF-NanU (BF1720) (Bacteroides fragilis, UniProt Q5LEN2); test: Steady-state tryptophan fluorescence titration, BF-NanU; type: binding
BF-NanU (BF1720), sequence (Q5LEN2 entry or part of it): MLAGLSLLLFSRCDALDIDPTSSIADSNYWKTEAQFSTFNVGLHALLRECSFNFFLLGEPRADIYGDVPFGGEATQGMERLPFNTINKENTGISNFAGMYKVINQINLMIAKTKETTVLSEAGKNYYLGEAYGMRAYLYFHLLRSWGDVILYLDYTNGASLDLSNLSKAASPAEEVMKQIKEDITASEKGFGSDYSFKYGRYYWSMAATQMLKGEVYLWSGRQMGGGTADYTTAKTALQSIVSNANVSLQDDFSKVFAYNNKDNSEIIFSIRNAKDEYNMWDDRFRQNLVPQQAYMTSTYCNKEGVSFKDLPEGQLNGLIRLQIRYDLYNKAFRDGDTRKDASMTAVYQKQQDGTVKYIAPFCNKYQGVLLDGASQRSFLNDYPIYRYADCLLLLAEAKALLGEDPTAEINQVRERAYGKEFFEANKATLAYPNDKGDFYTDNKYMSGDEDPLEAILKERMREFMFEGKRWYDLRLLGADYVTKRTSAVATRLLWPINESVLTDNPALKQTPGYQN
Method: as §1

[5] = target: lectin domain of the Vibrio cholerae sialidase; set-up: method as in PMID 15226294; settings: read-out: affinity; cited from earlier work
[6] = target: SiaP; set-up: method as in PMID 16702222; settings: cited from earlier work
[7] = test system: SusD; set-up: method as in PMID 18611383; settings: non-physiological ligand; cited from earlier work
[8] = 0.5 μM protein, 25 mM sodium phosphate pH 7.4, 25°C, one-site specific binding

Row | Molecule | binding to NanU (in words) [1] | Kd [3] | Kd [4, 8] | other results
1 | CC(=O)NC1C(O)CC(OC2C(O)C(CO)OC(OC3C(CO)OC(O)C(O)C3O)C2O)(C(=O)O)OC1C(O)C(O)CO (stereo not shown) [3′-siallyl-lactose] | did not display any interaction | – | – | –
2 | CC(=O)NC1C(O)CC(OCC2OC(OC3C(CO)OC(O)C(O)C3O)C(O)C(O)C2O)(C(=O)O)OC1C(O)C(O)CO (stereo not shown) [6′-siallyl-lactose] | did not display any interaction | – | – | –
3 | CC(=O)N[C@H]1C(O)O[C@H](CO)[C@@H](O[C@@H]2O[C@H](CO)[C@H](O)[C@H](O)[C@H]2O)[C@@H]1O (stereo partly shown) [N-acetyl lactosamine] | – | – | – | binding interaction (range in words) [2]: in the mM range
4 | CC(=O)N[C@H]1[C@H]([C@H](O)[C@H](O)CO)OC(C(=O)O)=C[C@@H]1O [Neu5Ac2en, 2-deoxy-2,3-didehydro-Neu5Ac] | – | 8.3 µM and 8.29 µM | 5.6 µM and 5.55 µM | –
5 | CC(=O)N[C@H]1[C@H]([C@H](O)[C@H](O)CO)OC(O)(C(=O)O)C[C@@H]1O (stereo partly shown) [Neu5Ac, 5-N-acetylneuraminic acid] | – | 0.425 µM and 0.4 µM | 0.397 µM and 0.4 µM | Kd [5]: 30 µM; Kd [6]: 0.12 µM; Kd ([4]; BF-NanU expressed and purified from cells grown in M9 medium plus glycerol (results not shown)): 0.409 µM; Kd ([1]; NanU from two Bacteroidetes species, approximate summary value): ~0.4 µM
6 | O=C(CO)N[C@H]1[C@H]([C@H](O)[C@H](O)CO)O[C@](O)(C(=O)O)C[C@@H]1O [Neu5Gc, N-glycolylneuraminic acid] | – | 1.7 µM and 1.99 µM and 2 µM | 2 µM and 1.67 µM and 1.7 µM | affinity lower than Neu5Ac (fold) ([1]; Neu5Gc compared with Neu5Ac): 5 fold
7 | CCOC(=O)C1=C[C@@H](OC(CC)CC)[C@H](NC(C)=O)[C@@H](N)C1 [Oseltamivir, oseltamivir] | No binding | – | – | binding to NanU (in words) ([1]; listed as oseltamivir): neither
8 | CC(=O)N[C@H]1NC[C@H](C(=O)O)[C@H](O)[C@@H]1O [Siastatin B, siastatin B] | No binding | – | – | binding to NanU (in words) ([1]; listed as siastatin B): neither
9 | CC(=O)N[C@H]1[C@H]([C@H](O)[C@H](O)CO)OC(C(=O)O)=C[C@@H]1N=C(N)N [Zanamivir, zanamivir] | – | 1.1 µM and 1.13 µM | 0.9 µM and 0.905 µM | –
10 | cyclodextrin | – | – | – | binding interaction (range in words) [7]: in the hundreds of μM range
11 | sialyl-lactose | does not bind | – | – | –
